This is an account of results in patent US11001590B2, “Pyrazolopyrimidine derivatives” (BAYER ANIMAL HEALTH GMBH, priority 2016, dated 2021).

Structures are written as SMILES.

C. elegans Slo-1a, sequence (Q95V25 whole entry): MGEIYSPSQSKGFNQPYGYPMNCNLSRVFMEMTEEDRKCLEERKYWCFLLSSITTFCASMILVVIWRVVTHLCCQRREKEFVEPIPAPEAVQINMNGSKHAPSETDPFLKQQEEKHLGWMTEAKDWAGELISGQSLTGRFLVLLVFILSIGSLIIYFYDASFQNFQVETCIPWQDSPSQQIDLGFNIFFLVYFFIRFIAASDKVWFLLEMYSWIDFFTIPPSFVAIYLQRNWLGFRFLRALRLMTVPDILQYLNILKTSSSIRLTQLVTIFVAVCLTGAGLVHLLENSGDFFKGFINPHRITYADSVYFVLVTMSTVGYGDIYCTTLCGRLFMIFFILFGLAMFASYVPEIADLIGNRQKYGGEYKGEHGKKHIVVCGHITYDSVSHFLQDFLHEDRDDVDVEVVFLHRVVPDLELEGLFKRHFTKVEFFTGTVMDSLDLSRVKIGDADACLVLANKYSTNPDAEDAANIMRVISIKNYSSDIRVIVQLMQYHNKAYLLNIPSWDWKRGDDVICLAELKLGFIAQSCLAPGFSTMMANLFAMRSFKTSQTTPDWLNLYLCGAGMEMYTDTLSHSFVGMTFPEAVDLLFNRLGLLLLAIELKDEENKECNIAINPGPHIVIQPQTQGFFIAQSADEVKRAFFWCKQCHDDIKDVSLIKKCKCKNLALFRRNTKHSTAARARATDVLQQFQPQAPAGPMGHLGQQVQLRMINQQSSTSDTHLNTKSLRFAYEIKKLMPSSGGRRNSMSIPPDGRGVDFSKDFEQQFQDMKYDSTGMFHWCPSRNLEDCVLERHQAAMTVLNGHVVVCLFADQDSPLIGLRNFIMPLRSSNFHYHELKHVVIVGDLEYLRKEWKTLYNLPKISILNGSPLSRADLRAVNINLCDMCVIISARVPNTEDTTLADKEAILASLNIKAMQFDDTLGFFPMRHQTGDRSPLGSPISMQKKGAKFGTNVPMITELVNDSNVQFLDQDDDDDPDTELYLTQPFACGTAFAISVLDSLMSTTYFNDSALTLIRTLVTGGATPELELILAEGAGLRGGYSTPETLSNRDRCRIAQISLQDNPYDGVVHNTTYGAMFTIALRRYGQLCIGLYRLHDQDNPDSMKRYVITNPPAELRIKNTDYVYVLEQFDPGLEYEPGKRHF

One data set has as its system Nippostrongylus brasiliensis. Put plainly: In vitro assay 2: Nippostrongylus brasiliensis (NIPOBR), acetylcholine esterase readout. The conditions noted are these: adult worms, 1 μg/ml (1 ppm), read-out: activity (reduction of AChE compared to negative control). Put shortly:
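Adult worms were washed in saline with antibiotics/antimycotic, then incubated with compound at 10 μg/ml (10 ppm) or 1 μg/ml (1 ppm) final, from DMSO stock. Acetylcholine esterase activity in a medium aliquot, compared with a negative control, served as the anthelmintic readout.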
For `Cc1nn2c(C(C)C)c(C(=O)N[C@H]3CCOc4ccccc43)cnc2c1-c1cc(Cl)cc(Cl)c1Cl` [Example 234], the inhibition at 1 µg/mL is greater than 80%.
For `Cc1nn2c(C3CC3)c(C(=O)N[C@H]3CCOc4ccccc43)cnc2c1-c1cccc(F)c1Cl` [Example 472], the inhibition at 1 µg/mL was greater than 80%.
The same measure, in the same setting: the same measure for `Cc1nn2c(C(C)C)c(C(=O)N[C@H]3CCOc4ccccc43)cnc2c1-c1cccc(N(C)C)c1F` [Example 260]: greater than 80%.

Staying with this data set, now noted: adult worms, 10 μg/ml (10 ppm), read-out: activity (reduction of AChE compared to negative control).
As to `Cc1nn2c(C(C)C)c(C(=O)N[C@H]3CCOc4ccccc43)cnc2c1-c1c(F)ccc(F)c1F` [Example 253], the inhibition at 10 µg/mL was greater than 80%.
The same measure, in the same setting: the same measure for `Cc1nn2c(C(C)C)c(C(=O)N[C@H]3CCOc4ccccc43)cnc2c1-c1cc(Cl)cc(Cl)c1Cl` [Example 234]: greater than 80%; for `Cc1nn2c(C(C)C)c(C(=O)N[C@H]3CCOc4ccccc43)cnc2c1-c1cccc(N(C)C)c1F` [Example 260]: greater than 80%.

The subject of a further data set is Dirofilaria immitis microfilariae. The data set is described as follows: In vitro assay 3: Dirofilaria immitis microfilariae (DIROIM L1), motility. As to conditions: 72 h, reduction of motility vs negative control, 72 h incubation.
For the molecule `Cc1nn2c(C(C)C)c(C(=O)N[C@H]3CCOc4ccccc43)cnc2c1-c1c(F)ccc(F)c1F` [Example 253], the EC50 was less than 0.1 µg/mL.
On the same count and under the same terms, the result for `Cc1nn2c(N3CCOCC3)c(C(=O)N[C@H]3CCOc4ccccc43)cnc2c1-c1cccc(C(F)(F)F)c1Cl` [Example 532] reads less than 0.1 µg/mL; that for `Cc1nn2c(C(C)C)c(C(=O)N[C@H]3CCOc4ccccc43)cnc2c1-c1cc(Cl)ccc1F` [Example 256], less than 0.1 µg/mL; that for `Cc1nn2c(C(C)C)c(C(=O)N[C@H]3CCOc4ccccc43)cnc2c1-c1cc(Cl)cc(Cl)c1Cl` [Example 234], less than 0.1 µg/mL.
Still for that read-out and setting: the result for `CNc1c(C(=O)N[C@H]2CCOc3ccccc32)cnc2c(-c3cccc(Cl)c3Cl)c(C)nn12` [Example 548] reads less than 0.1 µg/mL; that for `Cc1nn2c(C3CC3)c(C(=O)N[C@H]3CCOc4ccccc43)cnc2c1-c1cccc(F)c1Cl` [Example 472], less than 0.1 µg/mL.
Molecule `Cc1nn2c(C(C)C)c(C(=O)N[C@H]3CCOc4ccccc43)cnc2c1-c1cccc(N(C)C)c1F` [Example 260] yielded an EC50 of less than 1 µg/mL.

Another data set deals with Dirofilaria immitis third-stage larvae. Put plainly: In vitro assay 4: Dirofilaria immitis (DIROIM L4), motility of larvae. As to conditions: 72 h.
For the molecule `Cc1nn2c(C(C)C)c(C(=O)N[C@H]3CCOc4ccccc43)cnc2c1-c1c(F)ccc(F)c1F` [Example 253], the 50% effective concentration (EC50) was less than 0.1 µg/mL.
On the same count and under the same terms, the same measure for `Cc1nn2c(C(C)C)c(C(=O)N[C@H]3CCOc4ccccc43)cnc2c1-c1cc(Cl)ccc1F` [Example 256]: less than 0.1 µg/mL; for `Cc1nn2c(C(C)C)c(C(=O)N[C@H]3CCOc4ccccc43)cnc2c1-c1cc(Cl)cc(Cl)c1Cl` [Example 234]: less than 0.1 µg/mL.
Still for that read-out and setting: the same measure for `Cc1nn2c(C3CC3)c(C(=O)N[C@H]3CCOc4ccccc43)cnc2c1-c1cccc(F)c1Cl` [Example 472]: less than 0.1 µg/mL.

For a further data set, the system named is Cooperia curticei. The data set is described as follows: In vitro assay 5: Cooperia curticei (COOPCU), larval mortality. As to conditions: 120 h, read-out: activity (percentage of larval mortality).
Description: In Vitro Assay 5: Cooperia curticei (COOPCU)
Solvent: Dimethyl Sulfoxide
Approximately 40 nematode larvae (Cooperia curticei) are transferred into a test tube containing the compound solution.
After 5 days percentage of larval mortality is recorded. 100% efficacy means all larvae are killed; 0% efficacy means no larvae are killed.
For the molecule `Cc1nn2c(N3CCOCC3)c(C(=O)N[C@H]3CCOc4ccccc43)cnc2c1-c1cccc(C(F)(F)F)c1Cl` [Example 532], the mortality at 20 ppm was determined as 100%.
On the same count and under the same terms, the same measure for `Cc1nn2c(C(C)C)c(C(=O)N[C@H]3CCOc4ccccc43)cnc2c1-c1cc(Cl)ccc1F` [Example 256]: 80%.
Still for that read-out and setting: the result for `Cc1nn2c(C(C)C)c(C(=O)N[C@H]3CCOc4ccccc43)cnc2c1-c1cc(Cl)cc(Cl)c1Cl` [Example 234] reads 90%.
The same measure, in the same setting: the same measure for `CNc1c(C(=O)N[C@H]2CCOc3ccccc32)cnc2c(-c3cccc(Cl)c3Cl)c(C)nn12` [Example 548]: 90%; for `Cc1nn2c(C3CC3)c(C(=O)N[C@H]3CCOc4ccccc43)cnc2c1-c1cccc(F)c1Cl` [Example 472]: 80%.
On to `Cc1nn2c(C(C)C)c(C(=O)N[C@H]3CCOc4ccccc43)cnc2c1-c1cccc(N(C)C)c1F` [Example 260], for which the mortality at 20 ppm is 90%.

The next data set deals with Litomosoides sigmodontis third-stage larvae. The data set is described as follows: In vitro assay 7: Litomosoides sigmodontis L3 (LTMOSI), motility. The conditions noted are these: 72 h, reduction of motility vs negative control, 72 h incubation.
`Cc1nn2c(C(C)C)c(C(=O)N[C@H]3CCOc4ccccc43)cnc2c1-c1c(F)ccc(F)c1F` [Example 253] showed an EC50 of less than 0.1 µg/mL.
Still for that read-out and setting: the result for `Cc1nn2c(C(C)C)c(C(=O)N[C@H]3CCOc4ccccc43)cnc2c1-c1cc(Cl)ccc1F` [Example 256] reads less than 0.1 µg/mL.
For `Cc1nn2c(C(C)C)c(C(=O)N[C@H]3CCOc4ccccc43)cnc2c1-c1cc(Cl)cc(Cl)c1Cl` [Example 234], the EC50 is less than 0.1 µg/mL.
Same read-out and setting: the same measure for `Cc1nn2c(C3CC3)c(C(=O)N[C@H]3CCOc4ccccc43)cnc2c1-c1cccc(F)c1Cl` [Example 472]: less than 0.1 µg/mL.

The next data set has as its system Haemonchus contortus. Put plainly: In vitro assay 6: Haemonchus contortus (HAEMCO), larval mortality. As to conditions: Haemonchus contortus, 120 h, read-out: activity (percentage of larval mortality).
Description: In Vitro Assay 6: Haemonchus contortus (HAEMCO)
Solvent: dimethyl sulfoxide
Approximately 40 larvae of the red stomach worm (Haemonchus contortus) are transferred into a test tube containing compound solution.
After 5 days the percentage of larval mortality is recorded. 100% efficacy means all larvae are killed, 0% efficacy means no larvae are killed.
As to `Cc1nn2c(C(C)C)c(C(=O)N[C@H]3CCOc4ccccc43)cnc2c1-c1c(F)ccc(F)c1F` [Example 253], the mortality at 4 ppm came out at 80%.
On to `Cc1nn2c(N3CCOCC3)c(C(=O)N[C@H]3CCOc4ccccc43)cnc2c1-c1cccc(C(F)(F)F)c1Cl` [Example 532], for which the mortality at 20 ppm came to 90%.
On the same count and under the same terms, the result for `Cc1nn2c(C(C)C)c(C(=O)N[C@H]3CCOc4ccccc43)cnc2c1-c1cc(Cl)ccc1F` [Example 256] reads 80%; that for `Cc1nn2c(C(C)C)c(C(=O)N[C@H]3CCOc4ccccc43)cnc2c1-c1cc(Cl)cc(Cl)c1Cl` [Example 234], 90%.
On the same count and under the same terms, the same measure for `CNc1c(C(=O)N[C@H]2CCOc3ccccc32)cnc2c(-c3cccc(Cl)c3Cl)c(C)nn12` [Example 548]: 90%.
As to `Cc1nn2c(C3CC3)c(C(=O)N[C@H]3CCOc4ccccc43)cnc2c1-c1cccc(F)c1Cl` [Example 472], the mortality at 4 ppm came to 80%.
Turning to `Cc1nn2c(C(C)C)c(C(=O)N[C@H]3CCOc4ccccc43)cnc2c1-c1cccc(N(C)C)c1F` [Example 260], the mortality at 20 ppm was 80%.

Still in this data set, the particulars now being: application rate 20 ppm; after 5 days.
In the case of `CCc1c(C(=O)N[C@H]2CCOc3ccccc32)cnc2c(-c3c(F)ccc(Cl)c3F)c(C)nn12` [Example 489], the “activity (percentage of larval mortality)” value is recorded as 90%.

Tested on in another data set: not listed separately
The data set is described as follows: log P by HPLC on reversed phase columns (Method L0; [a] acidic, [b] neutral range).
Details: not given
For `Cc1nn2c(C(C)C)c(C(=O)N[C@H]3CCOc4ccccc43)cnc2c1-c1c(F)ccc(F)c1F` [Example 253], the chromatographic logP came to 4.32.
Still for that read-out and setting: the same measure for `Cc1nn2c(N3CCOCC3)c(C(=O)N[C@H]3CCOc4ccccc43)cnc2c1-c1cccc(C(F)(F)F)c1Cl` [Example 532]: 5.59.
Same read-out and setting: the same measure for `Cc1nn2c(C(C)C)c(C(=O)N[C@H]3CCOc4ccccc43)cnc2c1-c1cc(Cl)ccc1F` [Example 256]: 4.87; for `Cc1nn2c(C(C)C)c(C(=O)N[C@H]3CCOc4ccccc43)cnc2c1-c1cc(Cl)cc(Cl)c1Cl` [Example 234]: 5.48; for `CNc1c(C(=O)N[C@H]2CCOc3ccccc32)cnc2c(-c3cccc(Cl)c3Cl)c(C)nn12` [Example 548]: 4.18.
Same read-out and setting: the same measure for `Cc1nn2c(C3CC3)c(C(=O)N[C@H]3CCOc4ccccc43)cnc2c1-c1cccc(F)c1Cl` [Example 472]: 3.72; for `Cc1nn2c(C(C)C)c(C(=O)N[C@H]3CCOc4ccccc43)cnc2c1-c1cccc(N(C)C)c1F` [Example 260]: 4.18.

A further data set has as its target C. elegans Slo-1a (Caenorhabditis elegans, UniProt Q95V25). The data set is described as follows: In vitro assay 1: C. elegans Slo-1a, action at a recombinant C. elegans CHO cell line (membrane potential measurement).
Details: not given
As for `Cc1nn2c(C(C)C)c(C(=O)N[C@H]3CCOc4ccccc43)cnc2c1-c1c(F)ccc(F)c1F` [Example 253], the EC50 was 1.26 nM.
Still for that read-out and setting: the result for `Cc1nn2c(N3CCOCC3)c(C(=O)N[C@H]3CCOc4ccccc43)cnc2c1-c1cccc(C(F)(F)F)c1Cl` [Example 532] reads 1 nM; that for `Cc1nn2c(C(C)C)c(C(=O)N[C@H]3CCOc4ccccc43)cnc2c1-c1cc(Cl)ccc1F` [Example 256], 2.51 nM; that for `Cc1nn2c(C(C)C)c(C(=O)N[C@H]3CCOc4ccccc43)cnc2c1-c1cc(Cl)cc(Cl)c1Cl` [Example 234], 1.26 nM.
For `CNc1c(C(=O)N[C@H]2CCOc3ccccc32)cnc2c(-c3cccc(Cl)c3Cl)c(C)nn12` [Example 548], the EC50 is 6.31 nM.
Still for that read-out and setting: the result for `Cc1nn2c(C3CC3)c(C(=O)N[C@H]3CCOc4ccccc43)cnc2c1-c1cccc(F)c1Cl` [Example 472] reads 1.58 nM; that for `Cc1nn2c(C(C)C)c(C(=O)N[C@H]3CCOc4ccccc43)cnc2c1-c1cccc(N(C)C)c1F` [Example 260], 3.16 nM.

Staying with this data set, now noted: CHO cells expressing C. elegans Slo-1a; voltage sensitive dye, FLIPR Tetra; negative decadic logarithm of EC50.
For `CCc1c(C(=O)N[C@H]2CCOc3ccccc32)cnc2c(-c3c(F)ccc(Cl)c3F)c(C)nn12` [Example 489], the pE50 is listed as 8.8.

Broadly, the EC50 is the concentration that produces a half-maximal response. By mortality is commonly meant the percentage killed. The chromatographic logP is lipophilicity estimated from chromatographic retention. High values mean a more lipophilic compound, low ones a more hydrophilic compound.
